Data on 2 compounds can be found in paper PMC6458995, “MAP4K4 Inhibition Promotes Survival of Human Stem Cell-Derived Cardiomyocytes and Reduces Infarct Size In Vivo” (Cell Stem Cell, 2019).

Data set [1] has as its target ABL1 (Homo sapiens, UniProt P00519). As to the kind of experiment: HTRF Transcreener ADP kinase assay. The format is biochemical. The following applies: for IC50: HTRF Transcreener ADP assay. As for the experimental part: (§1) MAP4K4 kinase activity was monitored using the CisBio HTRF Transcreener ADP assay, a competitive immunoassay with a reproducible Z’ > 0.6. In the detection step, endogenous ADP and d2-labeled ADP compete for binding an anti-ADP monoclonal antibody labeled with Eu^3+ cryptate. A ratiometric fluorescent readout is used at 665 and 620 nm. […] Assays were run in Greiner low volume plates with a final reaction volume of 10 μl. Percent inhibition was calculated from 100% activity of MAP4K4 (DMSO only) and 0% activity (no enzyme added). Data were either reported as % inhibition at a single dose or as pIC50 values derived from dose response curves (pIC50 = -log[IC50]).
(§2) Kinase selectivity profiling was performed by the International Centre for Kinase Profiling, MRC Protein Phosphorylation and Ubiquitylation Unit (141 kinases; Premier Screen, http://www.kinase-screen.mrc.ac.uk), using a [γ-^33P]ATP filter binding assay ([Bain et al., 2007]). Compounds were screened at 1 μM. For key hits, pIC50 values were then determined by HTRF as above. More complete kinome profiling was performed by Reaction Biology (376 kinases). Stability in mouse and human liver microsomes was determined by Cyprotex.
On the technique in general: Time-resolved FRET reads energy transfer from a long-lived donor to a nearby acceptor.

Data set [2] concerns the target T1, GLK/MAP4K3 (Homo sapiens, UniProt Q8IVH8).
T1 sequence (Q8IVH8 1-894): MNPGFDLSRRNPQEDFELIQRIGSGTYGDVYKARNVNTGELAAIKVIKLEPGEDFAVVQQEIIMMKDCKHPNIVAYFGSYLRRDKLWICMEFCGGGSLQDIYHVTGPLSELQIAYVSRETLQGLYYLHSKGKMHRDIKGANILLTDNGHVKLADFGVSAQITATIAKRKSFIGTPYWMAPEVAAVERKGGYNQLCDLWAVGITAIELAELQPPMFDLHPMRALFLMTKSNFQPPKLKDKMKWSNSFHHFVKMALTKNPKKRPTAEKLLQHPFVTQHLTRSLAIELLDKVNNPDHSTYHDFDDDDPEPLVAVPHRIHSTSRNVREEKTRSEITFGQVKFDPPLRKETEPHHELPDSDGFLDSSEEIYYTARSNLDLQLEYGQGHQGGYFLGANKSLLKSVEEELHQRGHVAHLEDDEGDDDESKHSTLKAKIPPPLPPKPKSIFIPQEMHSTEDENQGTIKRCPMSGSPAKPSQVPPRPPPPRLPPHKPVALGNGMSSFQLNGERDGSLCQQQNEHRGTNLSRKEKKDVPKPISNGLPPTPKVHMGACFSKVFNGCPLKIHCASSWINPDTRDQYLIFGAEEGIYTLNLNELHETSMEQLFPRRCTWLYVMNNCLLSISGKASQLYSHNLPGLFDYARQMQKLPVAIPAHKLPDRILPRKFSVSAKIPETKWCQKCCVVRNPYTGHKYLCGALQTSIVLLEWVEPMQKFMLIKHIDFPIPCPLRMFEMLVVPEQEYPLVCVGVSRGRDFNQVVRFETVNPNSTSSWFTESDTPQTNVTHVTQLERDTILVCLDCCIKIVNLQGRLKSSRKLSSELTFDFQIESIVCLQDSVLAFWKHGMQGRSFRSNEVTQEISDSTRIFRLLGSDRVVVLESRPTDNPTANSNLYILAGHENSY
The data set is described as follows: HTRF Transcreener ADP kinase assay. It is filed as biochemical. As to conditions: for IC50: HTRF Transcreener ADP assay. As for the experimental part: as §1, §2

Data set [3] has as its target KHS/MAP4K5 (Homo sapiens, UniProt Q9Y4K4). As to the kind of experiment: HTRF Transcreener ADP kinase assay. It is filed as biochemical. The following applies: for IC50: HTRF Transcreener ADP assay. As for the experimental part: as §1, §2
Data set [4] concerns iCell cardiomyocytes. The data set is described as follows: CellTiter-Glo protection from 400 μM H2O2. The format is cell-based. As to conditions: Homo sapiens, Cardiomyocyte, read-out: EC50 in iCell cardiomyocytes (protecting hiPSC-CMs). Here is the method: iCell cardiomyocytes were thawed, transferred to Plating Medium, counted using a Vi-CELL XR cell viability analyzer (Beckman Coulter), and seeded into 24-well plates for RNA collection (60,000 cells well^-1; Greiner) or μClear half-area 96-well plates for gene silencing (10,000 cells well^-1; Greiner). Plates were coated with 10 μg ml^-1 collagen type I (BD Biosciences). Cells were cultured in iCell Cardiomyocytes Plating Medium for 2 d and in Maintenance Medium thereafter. For compound dose-response comparisons, the cells were deposited in Plating Medium at 10,000 cells well^-1 in 0.1% (w/v) gelatin-coated 384-well white Greiner plates and were cultured as above for 8 d before treatment.
For cell-based dose-response experiments, MAP4K4 inhibitors were prepared in 96-well polypropylene plates as serial dilutions in DMSO of 10 mM stock solutions. […]
Assay plates were removed from the incubator, allowed to reach room temperature, inoculated with 20 μl well^-1 CTG reagent (Promega), and gently agitated for 30 min. […] Luminescence due to ATP, proportional to cell number, was captured on a PHERAstar Plus microplate reader (BMG Labtech). […]
On the technique in general: ATP-based viability assays read luminescence as a measure of living cells.

A short description of data set [5]: IV PK (plasma concentrations after intravenous administration). The format is in vivo, mice. As to conditions: IV PK (1 mg kg^−1); for Cmax / Vd / clearance / half-life: mouse, mice, plasma.

One may read the IC50 as the concentration that gives 50% inhibition. A low value points to greater potency. What is called EC50 is the midpoint of the concentration-response curve. As a reminder, the Cmax is the maximum level reached in the sampled fluid or tissue. What is called Vd is the apparent volume that relates the amount in the body to the concentration in plasma or blood. Read a low Vd as confinement near the circulation. What is called clearance is the volume of plasma or blood freed of the substance per unit of time. In general, half-life refers to the time in which the quantity being followed falls by half. High values mean slow loss, low ones fast loss.

KHS/MAP4K5, sequence (Q9Y4K4 whole entry): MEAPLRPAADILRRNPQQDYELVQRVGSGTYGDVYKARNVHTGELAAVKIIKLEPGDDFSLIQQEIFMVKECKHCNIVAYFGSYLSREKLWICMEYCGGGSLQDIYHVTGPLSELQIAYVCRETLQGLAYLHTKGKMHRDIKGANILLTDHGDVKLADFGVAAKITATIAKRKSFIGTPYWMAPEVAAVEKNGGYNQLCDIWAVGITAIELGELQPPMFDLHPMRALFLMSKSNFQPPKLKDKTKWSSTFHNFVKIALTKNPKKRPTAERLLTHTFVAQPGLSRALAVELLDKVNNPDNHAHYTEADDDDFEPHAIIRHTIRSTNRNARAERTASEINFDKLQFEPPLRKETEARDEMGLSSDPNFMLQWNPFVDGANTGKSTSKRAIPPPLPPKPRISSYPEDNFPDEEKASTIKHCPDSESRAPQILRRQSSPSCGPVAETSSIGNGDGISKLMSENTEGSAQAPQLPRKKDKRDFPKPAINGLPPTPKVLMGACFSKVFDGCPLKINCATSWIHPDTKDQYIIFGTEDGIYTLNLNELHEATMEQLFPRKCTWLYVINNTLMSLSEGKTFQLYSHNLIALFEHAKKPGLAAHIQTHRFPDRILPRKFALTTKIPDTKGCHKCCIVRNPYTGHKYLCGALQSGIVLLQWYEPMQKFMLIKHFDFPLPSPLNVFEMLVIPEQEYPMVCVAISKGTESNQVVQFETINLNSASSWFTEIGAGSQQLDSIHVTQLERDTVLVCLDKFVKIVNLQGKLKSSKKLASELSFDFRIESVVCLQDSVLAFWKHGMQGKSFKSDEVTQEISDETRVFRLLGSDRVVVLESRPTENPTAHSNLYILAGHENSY
ABL1, sequence (P00519 whole entry): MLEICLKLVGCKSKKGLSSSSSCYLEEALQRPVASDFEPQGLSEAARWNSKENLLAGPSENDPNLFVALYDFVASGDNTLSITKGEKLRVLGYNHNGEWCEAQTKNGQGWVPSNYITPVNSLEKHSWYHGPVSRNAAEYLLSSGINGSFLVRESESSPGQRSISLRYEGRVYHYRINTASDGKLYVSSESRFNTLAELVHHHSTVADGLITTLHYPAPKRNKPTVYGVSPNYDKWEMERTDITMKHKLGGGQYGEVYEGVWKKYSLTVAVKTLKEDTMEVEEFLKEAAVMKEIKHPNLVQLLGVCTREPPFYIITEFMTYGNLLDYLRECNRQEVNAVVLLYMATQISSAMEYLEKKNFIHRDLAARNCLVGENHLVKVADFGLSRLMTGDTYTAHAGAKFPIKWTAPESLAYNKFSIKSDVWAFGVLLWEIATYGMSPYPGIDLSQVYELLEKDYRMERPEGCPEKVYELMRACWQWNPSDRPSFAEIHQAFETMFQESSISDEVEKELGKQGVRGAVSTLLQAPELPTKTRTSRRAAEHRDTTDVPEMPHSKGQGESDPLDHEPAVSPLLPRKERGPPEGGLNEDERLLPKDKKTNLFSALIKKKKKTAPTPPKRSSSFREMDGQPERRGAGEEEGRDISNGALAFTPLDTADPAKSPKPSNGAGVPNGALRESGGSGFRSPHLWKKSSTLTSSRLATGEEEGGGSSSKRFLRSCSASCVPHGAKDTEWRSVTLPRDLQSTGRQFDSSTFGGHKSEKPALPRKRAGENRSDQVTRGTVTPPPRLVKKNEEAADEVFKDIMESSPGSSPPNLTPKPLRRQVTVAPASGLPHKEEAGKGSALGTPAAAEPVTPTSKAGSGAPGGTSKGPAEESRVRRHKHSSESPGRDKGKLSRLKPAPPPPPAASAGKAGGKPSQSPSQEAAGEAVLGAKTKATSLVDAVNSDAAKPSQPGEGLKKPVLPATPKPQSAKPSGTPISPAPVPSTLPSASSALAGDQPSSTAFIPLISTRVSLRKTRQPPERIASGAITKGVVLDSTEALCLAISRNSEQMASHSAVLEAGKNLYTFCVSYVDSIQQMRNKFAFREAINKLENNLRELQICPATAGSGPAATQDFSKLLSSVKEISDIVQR

In turn, `Oc1ncnc2c1c(-c1ccccc1)cn2-c1ccccc1` [F1386-0303, 5,7-diphenyl-7H-pyrrolo[2,3-d]pyrimidin-4-ol] had a 50% inhibitory concentration (IC50) in data set [1] (ABL1) of 30.2 µM. Also, 30.2 µM corresponded to half-maximal inhibition in data set [2] (GLK/MAP4K3) (IC50). In addition, half-maximal inhibition in data set [3] (KHS/MAP4K5) (IC50) required 6.03 µM. The EC50 in data set [4] stood at 5 µM. In data set [5], this compound showed a maximum concentration (Cmax) of 3260 nM, a Vd of 1.05 L/kg, a clearance of 88.8 mL/min/kg and a half-life of 6 min.

`COCCOc1ccc(-c2cn(-c3ccccc3)c3nc[nH]c(=O)c23)cc1` [DMX-5804, 5-[4-(2-methoxy-ethoxy)-phenyl]-7-phenyl-3,7-dihydro-pyrrolo[2,3-d]pyrimidin-4-one] had a half-inhibitory concentration (IC50) in data set [1] (ABL1) of 1.58 µM. In addition, the “Fold Selectivity” value in data set [1] (ABL1 versus MAP4K4) is reported as 560. Moreover, the “DMX-5804 vs F1386-0303” value in data set [1] (ratio of fold selectivity, ABL1) stood at 0.65. In addition, the half-maximal inhibitory concentration (IC50) in data set [2] (GLK/MAP4K3) is 11.2 µM. In addition, the “Fold Selectivity” value in data set [2] (GLK/MAP4K3 versus MAP4K4) is recorded as 3981. Further, the “DMX-5804 vs F1386-0303” value in data set [2] (ratio of fold selectivity, GLK/MAP4K3) is recorded as 4.57. The compound also had an IC50 in data set [3] (KHS/MAP4K5) of 0.437 µM. Further, the “Fold Selectivity” value in data set [3] (KHS/MAP4K5 versus MAP4K4) is 153. Besides, the “DMX-5804 vs F1386-0303” value in data set [3] (ratio of fold selectivity, KHS/MAP4K5) turned out to be 0.88. Besides, the EC50 in data set [4] was determined as 0.5 µM. Further, in data set [5], the Cmax was found to be 1590 nM, the distribution volume (Vd) came out at 1.22 L/kg, the clearance was 41.7 mL/min/kg and the half-life is 36 min. In data set [5] (ratio), the “Cl, DMX-5804 versus F1386-0303” value is on record as 0.47; the “Cmax, DMX-5804 versus F1386-0303” value was 0.49; the “Vd, DMX-5804 versus F1386-0303” value is 1.16; the “t1/2, DMX-5804 versus F1386-0303” value amounted to 6.00.
